{
  "source": "patent US11576912B2",
  "about": "“Target genes in MYC-driven neoplasia” (The Board of Trustees of the Leland Stanford Junior …, priority 2017, dated 2023)",
  "key": {"[1]": {"test": "IC50 determination, CellTiter-Glo cell viability, cell lines with high MYC expression", "format": "cell-based, human and mouse", "conditions": "Mus musculus; range over MYC overexpressing cancer cell lines, 72 hours", "description": "(§1) IC50 Determination Cells were seeded at a density of 1000-2000 cells/well in 96-well plates. Cells were treated with different concentrations of KPT-330 (1:3 dilution from 10 micromolar to 0.33 nanomolar) for 72 hours. MYC expression was shut off by treating the cells with doxycycline (100ng/ml). All experiments were performed in quadruplicates. Cell viability was determined using the CellTiter-Glo Luminescent Cell Viability Assay (Promega). The IC50 was calculated using the Prism software (GraphPad). The log-transformed concentration values and the normalized luminance data were fitted to a four-parameter logistic equation to derive the IC50 value."}, "[2]": {"test": "IC50 determination, CellTiter-Glo cell viability, low MYC liver cancer cell lines and normal fibroblasts", "format": "cell-based", "conditions": "Homo sapiens; range over normal fibroblast cell line and liver cancer cell lines with low MYC expression, 72 hours", "description": "as §1"}, "EC4 cells [3]": {"system": "EC4 cells", "test": "Flow cytometric analysis of apoptosis (7-AAD/Annexin V)", "format": "cell-based, mouse", "conditions": "versus DMSO", "description": "Flow Cytometric Analysis of Apoptosis For apoptosis staining, cells were stained with 7-AAD and PE-Annexin-V (Becton Dickinson) and analyzed on a FACScan flow cytometer following manufacturer's instructions. FACS data was analyzed with FlowJo software (Tree Star). The apoptotic cell populations were defined by positive staining of both Annexin-V and 7-AAD."}, "EC4 cells [4]": {"system": "EC4 cells", "test": "EU labeling and imaging of total RNA distribution (RNA export)", "format": "cell-based, mouse", "conditions": "EC4 cells overexpressing MYC, 150 nM KPT-330, 5 h EU labeling, compared with DMSO controls", "description": "EU-Labeling and Visualization of Total RNA EC4 cells were labeled with 1 mM 5-ethynyl uridine (EU) for 5h in the presence of 150 nM KPT-330 or vehicle (DMSO control) at 37 degrees and 5% CO2. Cells were then fixed with 4% formaldehyde in PBS at room temperature for 20 minutes, washed consecutively with PBS, 50 mM NH4Cl/PBS, PBS (10 minutes each) and permeabilized with 0.2% TritonX100/PBS. After washing with PBS, EU was labeled with Alexa-647-azide using the Click-IT imaging kit (Invitrogen) following the manufacturer's instructions. Images were acquired on a DMI 6000 B (Leica) epifluorescence microscope. Mean fluorescence intensities in regions of interest in the cytoplasm and in the nucleus omitting nucleoli were determined using ImageJ."}, "[5]": {"system": "primary liver tumors in the LAP-tTA/tet-O-MYC mouse model", "description": "KPT-330 Treatment In Vivo and Monitoring the Tumor Size\nThe KPT-330 (Selleckchem) was dissolved in vehicle (1% Pluronic F-68 and 1% PVP-K29/32, 25 mg/kg) was administered by oral gavage to tumor-bearing mice three times a week for 6 doses total. A 7T MRI for small animals was used to image tumor both before and after treatment. Tumor volume was calculated based on the T2 weighted image stacks using the Osirix software. For short-term treatment, the mice were treated with either vehicle or KPT-330 for three doses and sacrificed the following day after the third dose.\nWestern Blot and Immunohistochemical Analysis\nThe following antibodies were used for Western blotting and IHC: MYC (9E10 for Western blot and Epitomics 1472-1 for IHC), Tubulin (Sigma), Cleaved caspase 3 and phospho-Histone H3 (Cell Signaling). Immunofluorescence or bright field pictures were taken with 20× objectives on a Leica DMI6000 B microscope and quantified using MetaMorph image analysis software."}, "[6]": {"conditions": "short-term treatment, three doses"}},
  "data": [
    {"compound": "O=C(/C=C\\n1cnc(-c2cc(C(F)(F)F)cc(C(F)(F)F)c2)n1)NNc1cnccn1", "note": "[KPT-330]", "values": [
      {"measurement": "IC50", "setting": "[1]", "value": "70 to 300", "unit": "nM"},
      {"measurement": "IC50", "setting": "[2]", "value": "≥ 300", "unit": "nM"},
      {"measurement": "increase in apoptosis", "setting": "EC4 cells [3]; EC4 cells with MYC OFF (doxycycline)", "value": "modest increase in apoptosis"},
      {"measurement": "induction of tumor cell apoptosis", "setting": "EC4 cells [3]; EC4 cells with MYC overexpression (MYC ON)", "value": "four-fold induction of tumor cell apoptosis"},
      {"measurement": "RNA distribution in the cytoplasm", "setting": "EC4 cells [4]", "value": "significantly reduced RNA distribution in the cytoplasm"},
      {"measurement": "RNA nuclear-cytoplasmic ratio", "setting": "EC4 cells [4]", "value": "increased RNA nuclear-cytoplasmic ratio"},
      {"measurement": "reduction in tumor volume", "setting": "[5]; 25 mg/kg oral gavage three times a week, 6 doses, two weeks, MRI before and after", "value": "more than 95%"},
      {"measurement": "histological examination of tumor sections", "setting": "[5]; H&E staining of tumor sections", "value": "only sporadic tumor cells left"},
      {"measurement": "proliferation or apoptosis in adjacent liver tissues (toxicity to normal hepatocytes)", "setting": "[5]; mouse, in vivo", "value": "minimal toxicity to the normal hepatocytes"},
      {"measurement": "tumor cell apoptosis by cleaved caspase-3 staining", "setting": "[5]; [6]", "value": "significantly induced apoptosis"},
      {"measurement": "tumor cell proliferation by phospho-histone H3 staining", "setting": "[5]; [6]", "value": "completely suppressed the proliferation"},
      {"measurement": "tumor regression according to MRI scan", "setting": "[5]; two mice with smaller tumors, 6 doses, two weeks", "value": "complete tumor regression"}
    ]}
  ]
}
